These antisense oligonucleotides have a phosphorothioate backbone; sugars and methylation of C are not fully specified.
Further: test concentration or dose not given here.

The first data set addresses MAP4K4. To be noted: ASO.
On to AGAGTAGACTCACCAGGCAC, for which the remaining target (mRNA or protein) (fraction of control) was determined as 0.75.
The same measure, in the same setting: to CACACAGAATCTCAGAGTTA belongs 0.61; to GACTTGGATGATGATCTCAC, 0.86; to TAAACCTGACTGCTGCCACC, 0.53.
Still for that read-out and setting: to CAGTTACAAGGAATTCCAAG belongs 0.93; to AGGTGGCATCTGGGTTCTCA, 0.46; to GCTCTCATTGGATGCATGTC, 0.39.
Same read-out and setting: in the case of ATGTAAGCGATCCAGTCTTC it was 0.67.
CCTGCCTGGCTATTCTGCTG had a remaining target (mRNA or protein) (fraction of control) of 0.43.
Same read-out and setting: in the case of GCCGTACATCTTCCACTGCT it was 0.45; in that of CCTTGATATCCCGGTGAATC, 0.23.
Still for that read-out and setting: in the case of TCCAAATGACTTAAAGGCCA it was 0.68; in that of CTTCCTCTTCATCCTCAGTG, 0.34.
On the same count and under the same terms, to CCGCTTCTGTCTCTCTGCCA belongs 0.25; to AGACCCGGGCTGGGATCCTG, 0.92; to GGATCATTGTGAAGTATTTT, 0.84.
For GCTCCTTTCCTGCTGCGGTG, the remaining target (mRNA or protein) (fraction of control) stood at 0.37.
Still for that read-out and setting: in the case of AAACAAAATGGGACCCCTTA it was 0.56; in that of TGTAGGCATCTCTCCCCACT, 0.42.
Same read-out and setting: to GGTACGATCTATATGATCCT belongs 0.8.
On the same count and under the same terms, in the case of TGGACAATCATGGTTTTCAC it was 0.71.
The sequence CACCACAGATGTCACTGTTG registered a remaining target (mRNA or protein) (fraction of control) of 0.45.
Turning to AGAGGGCCGCTGCATGTAAT, the remaining target (mRNA or protein) (fraction of control) turned out to be 0.36.
Same read-out and setting: to CCTCATCTTCATAGCACACC belongs 0.82; to CCTCTCCTCTTCTTCTTTGC, 0.64.
On the same count and under the same terms, to GAACCATCTGCACATGATTT belongs 0.48; to GTACGTCCATTTGTTGAAAT, 0.51.
The same measure, in the same setting: to AAGTTTCACCTCTGCATTCT belongs 0.26; to GCATGGAATCCAGCACAGGA, 0.69.
GGACTCGTCAGCCCCTTCCT registered a remaining target (mRNA or protein) (fraction of control) of 0.16.
Still for that read-out and setting: to GACTGAGTCTGGCGGACGAT belongs 0.84; to CACTGCATTTTCCAGGCGCT, 0.49.
Still for that read-out and setting: to ATGTCGACCCTTATAGACTT belongs 0.39; to CTCTGCAGGGCGGGATGCAC, ≥ 1.
Sequence ACTTCCTCCTCTTCTTCCTC gave a remaining target (mRNA or protein) (fraction of control) of 0.41.
Still for that read-out and setting: in the case of AATAAAACCAACGGCATGTT it was 0.81.
On the same count and under the same terms, to CCATCCAAGTGACCAGTTTC belongs 0.29; to GCCTTGATTTATTTTGGAGT, 0.92; to CCTGCTGCAGTCTCAGGAAA, 0.37.
The same measure, in the same setting: in the case of TTTGATTCTTTCATATTTTA it was 0.82.

The target of another data set is NCOA2. The note with it: ASO.
As for CTGGCTTCAGCAGTGTCA, the remaining target (mRNA or protein) (fraction of control) was 0.72.
Still for that read-out and setting: in the case of TGCACTTCATCTATGTTG it was 0.5; in that of GGCCCCAGCGCATCCTTG, 0.45.
The same measure, in the same setting: to TTCTGAATCAGGTAAAGG belongs ≥ 1.
In turn, GGATTTCCCTCTGTCTCT returned a remaining target (mRNA or protein) (fraction of control) of 0.32.
On the same count and under the same terms, in the case of AGGGTTGCTCATAGTTGC it was 0.61.
Still for that read-out and setting: in the case of GCTGGGTTGGCCTGAGAC it was ≥ 1; in that of AGAACTGGTCTTTCCTTC, 0.92.
The same measure, in the same setting: to TCAGCAGTGTCAGCAATA belongs ≥ 1.
ATCGGCTCGGGTCGGTCA: the remaining target (mRNA or protein) (fraction of control) amounted to 0.38.
The same measure, in the same setting: to CTGTCAACATTTACTTGG belongs ≥ 1; to TGCCTTCCAGGTTCACTA, 0.99.
Still for that read-out and setting: in the case of CCCTAAATTTCCTTGGTT it was 0.82; in that of TGCACATTTGTCAGGTTT, 0.18.
The same measure, in the same setting: to CATCCCACTCATCTTGAA belongs ≥ 1; to GTAGGCACGGAGGTCACT, ≥ 1.
Consider CCAACATGCAAGATGCTA, for which the remaining target (mRNA or protein) (fraction of control) came out at 0.83.
For the sequence GGGAAAAGCTGTGGTAAT, the remaining target (mRNA or protein) (fraction of control) is 0.79.
On the same count and under the same terms, in the case of TCTGCCCTTTGCTGTCAT it was 0.59; in that of CTATTAATTTTGTGTTAC, ≥ 1; in that of ACTCATCTTGAACACATA, ≥ 1.
On the same count and under the same terms, in the case of CCAAGTTGGTCAGGACAT it was ≥ 1; in that of AACCACCAAACCTGCCCA, 0.42; in that of GACGCCACCCTGGGAACC, 0.74.
On to GAAGCATATGTAAAGATA, for which the remaining target (mRNA or protein) (fraction of control) is ≥ 1.
The same measure, in the same setting: to CATTTACTATAGACTTTG belongs 0.79; to GTTATACCTTAGATACTG, 0.84.
Still for that read-out and setting: to GGACATAGCAAGTCATCT belongs 0.62; to GAGAGACAGCGAAGCACT, 0.29; to CTCTGTGAAATTCGCAGT, ≥ 1.
AAGCCAACGATGACCCTA returned a remaining target (mRNA or protein) (fraction of control) of 0.2.
The same measure, in the same setting: to TGCTGTGGGAAAACGGGC belongs 0.43; to GCAAGCTACCTGTGGAGT, 0.5.
In turn, CAGCAATATTTCCGTGTT gave a remaining target (mRNA or protein) (fraction of control) of 0.88.
On the same count and under the same terms, to AAAACTGACTGGGTGGGA belongs ≥ 1; to GCTGTGCTTGGAGGCGAT, 0.43.
In turn, TTCATGGCACTGGTGGTA displayed a remaining target (mRNA or protein) (fraction of control) of 0.85.
The same measure, in the same setting: in the case of TTTCTCCCATCCCACTCA it was 0.87.
Still for that read-out and setting: to ATTCTCTTTCTTCTTGGG belongs 0.71; to CTGCGCATGGAACTTCTG, 0.45.

In another data set the target is RIPK2. The note with it: ASO.
On to AAAACAGTCACTTACATGCT, for which the remaining target (mRNA or protein) (fraction of control) was 0.52.
As for AGATGGCCTCCCCGTTCATG, the remaining target (mRNA or protein) (fraction of control) came out at 0.51.
The same measure, in the same setting: in the case of TGAAATTCATTGTCCAATAA it was 0.99; in that of TTCATGGTCCCGGGCGCTCA, 0.53; in that of GCAGATGGCCTCCCCGTTCA, 0.84.
Same read-out and setting: in the case of GAGCAGCGGAGTGTGGATGT it was 0.3; in that of ATGTAACTAAATCTAGCTTT, 0.72.
Still for that read-out and setting: in the case of ATCAGGCTGTTGACTTTATT it was 0.53; in that of GTGCTCGGTGAGGTATATCA, 0.18.
TCTATTAAACATTTTAAGAA: the remaining target (mRNA or protein) (fraction of control) is ≥ 1.
Turning to GATACGCCCCTGCACGAGCG, the remaining target (mRNA or protein) (fraction of control) worked out at 0.65.

In a further data set the target is NCOA1. The note with it: ASO.
GGTCTGAGCTCTGCTGGC displayed a remaining target (mRNA or protein) (fraction of control) of 0.24.
The same measure, in the same setting: to TCCATCTGTTCTTTCTTT belongs 0.84; to CGAATTCCACCACACTGG, 0.69; to TGGTTATTCAGTCAGTAG, 0.71.
The sequence ACCTCCTGAAGAGTTAGC gave a remaining target (mRNA or protein) (fraction of control) of 0.58.
GCGTTGCTTGTTGTGGTG displayed a remaining target (mRNA or protein) (fraction of control) of 0.43.
Still for that read-out and setting: to TCATTAATTCCTCCTGAT belongs 0.48; to CTACGACCTGAAGAATGG, 0.76; to GGATTGACCGAGGGATTT, 0.52.
Same read-out and setting: to CTGAGGACTGGAGAACTG belongs 0.44; to CATGATGATGAAGCCGAA, 0.7; to AGCTGTCAATGTCACTAA, 0.43.
The same measure, in the same setting: in the case of TTAAAAGTGGTTATTCAG it was 0.79; in that of TTAGCAGGGTCGGATGAA, 0.4.
The sequence TTTAAAAGTGGTTATTCA registered a remaining target (mRNA or protein) (fraction of control) of 0.74.
Still for that read-out and setting: in the case of TAAAAGTGGTTATTCAGT it was 0.79; in that of CTTTAAAAGTGGTTATTC, ≥ 1; in that of TCCTTTAAAAGTGGTTAT, 0.93.
Still for that read-out and setting: to AGTGGTTATTCAGTCAGT belongs 0.67.
Same read-out and setting: to CCTTTAAAAGTGGTTATT belongs ≥ 1; to CTGAAAGTCTGTCATTGT, 0.95; to GAGCTAATACACTGGTCT, 0.55.
As to GTCCCCGCCTACCAGATT, the remaining target (mRNA or protein) (fraction of control) came to 0.56.
On the same count and under the same terms, to ATGCCAACAGGAGCAGTT belongs 0.51; to AAGTGGTTATTCAGTCAG, 0.74; to GTTCATTCCTGGCATCTG, 0.66.

Source of the values: the OligoGym collection.
